# Legend:
# Apis mellifera = details: acute, mortality
# Bibionidae = details: chronic/long-term
# Canidae = details: subchronic; duration: 90 days; oral; M/F; Dog Other; body weight
# Cyprinus carpio = details: acute; duration: 96 hours; mortality
# Oryctolagus sp. = details: reproduction developmental; body weight
# Pimephales promelas = details: chronic/long-term; duration: 110 days; reproduction
# Tagia sp. = details: chronic/long-term; growth
# Aphidius rhopalosiphi = test: LR50; higher = less toxic; details: not reported; mortality
compound,measurement,setting,value
CC[C@H]1CCC[C@H](O[C@H]2CC[C@H](N(C)C)[C@@H](C)O2)[C@@H](C)C(=O)C2=C[C@@H]3[C@@H](C=C(C)[C@@H]4C[C@@H](O[C@@H]5O[C@@H](C)[C@H](OC)[C@@H](OC)[C@H]5OC)C[C@@H]34)[C@@H]2CC(=O)O1.CC[C@H]1CCC[C@H](O[C@H]2CC[C@H](N(C)C)[C@@H](C)O2)[C@@H](C)C(=O)C2=C[C@@H]3[C@@H](C=C[C@@H]4C[C@@H](O[C@@H]5O[C@@H](C)[C@H](OC)[C@@H](OC)[C@H]5OC)C[C@@H]34)[C@@H]2CC(=O)O1 [Spinosad],LD50,"Anas platyrhynchos; acute, oral, unspecified, mortality",> 2000 mg/kg-day
same,NOAEL,Anas platyrhynchos; chronic/long-term,78.1 mg/kg-day
same,LEL,"Anas platyrhynchos; chronic/long-term, mortality",200 mg/kg-day
same,LD50,Apis mellifera; dermal,0.0036 µg/piece
same,LD50,"Apis mellifera; oral, unspecified",0.057 µg/piece
same,NOEC,Bibionidae; duration: 25 days,0.62 µg/L
same,NOEC,Bibionidae; duration: 28 days,0.0585 mg/kg
same,NOAEL,Canidae,4.89 mg/kg-day
same,LD50,"Colinus virginianus; acute, oral, mortality",> 2000 mg/kg-day
same,NOAEL,Colinus virginianus; chronic,68.5 mg/kg-day
same,LEL,"Colinus virginianus; chronic, mortality",200 mg/kg-day
same,LC50,Cyprinus carpio,4 µg/mL
same,NOAEL,Oryctolagus sp.,10 mg/kg-day
same,NOEC,Pimephales promelas,0.217 mg/L
same,LD50,"Rattus norvegicus; acute, oral, mortality",> 2000 mg/kg-day
same,NOAEL,"Rattus norvegicus; chronic, duration: 2 years, oral, diet, M, Fischer 344, organ weight",2.4 mg/kg-day
same,NOAEL,"Rattus norvegicus; reproduction developmental, M/F, reproduction",10 mg/kg-day
same,NOEC,Tagia sp.,35.2 mg/kg
same,LR50,Aphidius rhopalosiphi,0.371 g/ha

# From EPA's ToxValDB 9.5 (doi:10.2903/j.efsa.2018.5252)
